Assay [1] addresses T1, Cannabinoid receptor 1 (Homo sapiens, UniProt P21554).
Assay [2] addresses T1, Cannabinoid receptor 1. The format is functional, cell-based.
Assay [3] concerns the target T2, Alpha-1A adrenergic receptor (Homo sapiens, UniProt P35348).
T2 sequence (P35348 whole entry): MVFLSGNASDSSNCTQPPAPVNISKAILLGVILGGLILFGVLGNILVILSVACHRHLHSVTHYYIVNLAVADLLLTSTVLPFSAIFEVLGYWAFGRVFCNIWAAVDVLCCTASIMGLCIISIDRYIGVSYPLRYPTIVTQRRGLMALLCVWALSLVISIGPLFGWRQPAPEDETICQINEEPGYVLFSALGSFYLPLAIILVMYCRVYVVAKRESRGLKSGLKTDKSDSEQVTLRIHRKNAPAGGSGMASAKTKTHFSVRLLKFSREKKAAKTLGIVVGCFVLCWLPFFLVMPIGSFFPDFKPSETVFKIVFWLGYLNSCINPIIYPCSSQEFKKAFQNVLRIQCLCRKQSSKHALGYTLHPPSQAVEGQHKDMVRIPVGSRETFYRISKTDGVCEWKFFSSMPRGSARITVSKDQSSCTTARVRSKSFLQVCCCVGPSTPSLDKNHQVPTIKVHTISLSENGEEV

The target of the next assay is Histamine H3 receptor (Homo sapiens, UniProt Q9Y5N1).
The target in assay [4] is Sodium-dependent noradrenaline transporter (Homo sapiens, UniProt P23975).
For assay [5], the target named is Prostaglandin G/H synthase 1 (Homo sapiens, UniProt P23219). Format: functional.
For assay [6], the target named is T3, Muscarinic acetylcholine receptor M1 (Homo sapiens, UniProt P11229).
T3 sequence (P11229 whole entry): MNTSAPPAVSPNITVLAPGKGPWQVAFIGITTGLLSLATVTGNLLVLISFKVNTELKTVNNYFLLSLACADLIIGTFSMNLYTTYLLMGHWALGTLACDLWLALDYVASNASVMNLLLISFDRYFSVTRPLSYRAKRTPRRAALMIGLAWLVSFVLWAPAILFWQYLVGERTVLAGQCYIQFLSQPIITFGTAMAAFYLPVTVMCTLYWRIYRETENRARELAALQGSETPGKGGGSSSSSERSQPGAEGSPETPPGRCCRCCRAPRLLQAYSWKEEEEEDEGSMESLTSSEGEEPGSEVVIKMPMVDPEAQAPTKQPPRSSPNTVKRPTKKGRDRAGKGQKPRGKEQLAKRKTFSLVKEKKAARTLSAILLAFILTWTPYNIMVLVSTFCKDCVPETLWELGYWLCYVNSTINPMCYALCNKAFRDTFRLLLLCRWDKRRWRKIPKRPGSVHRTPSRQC
Format: functional, cell-based.

Some results are limits rather than exact numbers.
Also: assay procedure not described here.

Sequence of Sodium-dependent noradrenaline transporter (P23975 whole entry): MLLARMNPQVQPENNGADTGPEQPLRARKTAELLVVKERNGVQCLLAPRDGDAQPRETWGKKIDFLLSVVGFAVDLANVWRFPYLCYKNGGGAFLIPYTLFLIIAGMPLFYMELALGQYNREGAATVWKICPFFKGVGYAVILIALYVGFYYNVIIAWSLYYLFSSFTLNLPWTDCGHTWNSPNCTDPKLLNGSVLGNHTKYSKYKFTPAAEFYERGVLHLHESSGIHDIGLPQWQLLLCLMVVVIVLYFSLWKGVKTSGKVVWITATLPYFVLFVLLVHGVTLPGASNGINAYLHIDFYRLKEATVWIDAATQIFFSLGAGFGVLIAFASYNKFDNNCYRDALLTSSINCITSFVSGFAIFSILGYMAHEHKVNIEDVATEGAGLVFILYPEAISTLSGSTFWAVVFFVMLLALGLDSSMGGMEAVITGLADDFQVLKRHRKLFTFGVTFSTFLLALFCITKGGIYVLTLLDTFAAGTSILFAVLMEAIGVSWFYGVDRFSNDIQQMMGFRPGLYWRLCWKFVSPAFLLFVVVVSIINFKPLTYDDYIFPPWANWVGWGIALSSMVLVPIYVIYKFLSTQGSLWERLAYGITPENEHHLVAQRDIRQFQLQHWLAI
Sequence of Histamine H3 receptor (Q9Y5N1 whole entry): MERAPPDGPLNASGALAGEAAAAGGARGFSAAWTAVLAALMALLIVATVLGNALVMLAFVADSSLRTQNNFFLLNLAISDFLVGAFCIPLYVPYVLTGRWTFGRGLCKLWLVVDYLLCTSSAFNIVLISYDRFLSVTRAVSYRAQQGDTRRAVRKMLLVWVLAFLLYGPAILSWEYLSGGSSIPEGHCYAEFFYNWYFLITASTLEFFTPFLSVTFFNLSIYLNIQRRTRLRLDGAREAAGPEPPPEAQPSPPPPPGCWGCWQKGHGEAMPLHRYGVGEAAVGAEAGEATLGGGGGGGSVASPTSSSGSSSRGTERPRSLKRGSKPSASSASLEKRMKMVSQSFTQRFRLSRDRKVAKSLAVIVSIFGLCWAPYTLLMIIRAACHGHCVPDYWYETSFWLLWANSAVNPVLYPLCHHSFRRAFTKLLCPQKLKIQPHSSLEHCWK
Sequence of Prostaglandin G/H synthase 1 (P23219 whole entry): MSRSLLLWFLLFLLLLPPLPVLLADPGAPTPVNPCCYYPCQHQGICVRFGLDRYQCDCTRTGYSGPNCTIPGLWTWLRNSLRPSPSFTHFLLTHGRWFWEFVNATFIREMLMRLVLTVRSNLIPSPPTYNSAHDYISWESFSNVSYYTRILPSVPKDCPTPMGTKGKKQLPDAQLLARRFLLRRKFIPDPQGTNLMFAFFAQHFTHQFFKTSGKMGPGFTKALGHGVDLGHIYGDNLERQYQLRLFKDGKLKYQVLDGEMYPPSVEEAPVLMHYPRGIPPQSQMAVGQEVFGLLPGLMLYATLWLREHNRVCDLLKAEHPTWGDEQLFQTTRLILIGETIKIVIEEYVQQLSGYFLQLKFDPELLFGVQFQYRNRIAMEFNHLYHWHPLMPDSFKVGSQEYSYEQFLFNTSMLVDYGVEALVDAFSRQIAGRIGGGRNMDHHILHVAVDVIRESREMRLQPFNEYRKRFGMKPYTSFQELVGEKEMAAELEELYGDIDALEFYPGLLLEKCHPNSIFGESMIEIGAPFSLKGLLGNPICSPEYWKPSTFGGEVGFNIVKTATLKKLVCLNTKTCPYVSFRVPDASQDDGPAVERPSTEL
T1 sequence (P21554 whole entry): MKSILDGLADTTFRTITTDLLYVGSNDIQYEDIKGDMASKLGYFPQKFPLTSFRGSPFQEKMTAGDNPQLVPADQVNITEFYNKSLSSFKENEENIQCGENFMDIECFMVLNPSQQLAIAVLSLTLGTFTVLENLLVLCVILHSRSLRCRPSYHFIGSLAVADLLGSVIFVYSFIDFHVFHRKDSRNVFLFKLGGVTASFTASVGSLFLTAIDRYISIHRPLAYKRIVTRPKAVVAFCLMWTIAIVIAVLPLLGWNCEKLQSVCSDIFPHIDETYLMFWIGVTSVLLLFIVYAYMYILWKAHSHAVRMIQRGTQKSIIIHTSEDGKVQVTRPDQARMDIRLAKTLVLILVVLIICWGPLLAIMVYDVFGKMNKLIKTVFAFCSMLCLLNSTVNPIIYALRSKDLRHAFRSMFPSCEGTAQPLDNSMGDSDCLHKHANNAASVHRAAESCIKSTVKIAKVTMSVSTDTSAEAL

As to `C=CC1=C(C(=O)O)N2C(=O)[C@@H](NC(=O)/C(=N\O)c3csc(N)n3)[C@H]2SC1`, the AC50 (in general, the concentration at which the activity in the assay is half-maximal) was 15.8 µM at Cannabinoid receptor 1 [1], more than 30 µM on Cannabinoid receptor 1 [2], more than 10 µM in assay [3] and more than 10 µM at Histamine H3 receptor.
Take `NC(=O)C1(N2CCCCC2)CCN(CCCC(=O)c2ccc(F)cc2)CC1` [PIPAMPERONE]: the AC50 in assay [4], in assay [5] and in assay [6] was more than 30 µM throughout.
Turning to `N=C(N)NCC1COc2ccccc2O1` (stereo unspecified) [GUANOXAN], the AC50 is 5.56 µM in assay [4], more than 30 µM in assay [5] and more than 30 µM in assay [6].
Take `CCN(CC)CCn1c(=O)c(Cc2ccc(OC)cc2)nc2ccccc21` [CAROVERINE]: the AC50 is more than 30 µM on Cannabinoid receptor 1 [1], more than 30 µM on Cannabinoid receptor 1 [2], 8.9 µM in assay [3] and 2.38 µM at Histamine H3 receptor.
Regarding `Cc1cccc(C)c1NC(=O)c1cc(S(N)(=O)=O)c(Cl)cc1O` [XIPAMIDE], the AC50 in assay [4], in assay [5] and in assay [6] was more than 30 µM throughout.
For `C=CCOc1ccc(CC(=O)O)cc1Cl` [ALCLOFENAC], the AC50 in assay [4], in assay [5] and in assay [6] was more than 30 µM throughout.
For the molecule `CN1CCN(C(c2ccccc2)c2ccc(Cl)cc2)CC1` (stereo unspecified) [CHLORCYCLIZINE], the AC50 in assay [4] was 21.2 µM; in assay [5] it was more than 30 µM; in assay [6] it was more than 30 µM.
Take `C[C@]12CCC(=O)C=C1CC[C@H]1[C@@H]3CC[C@](O)(C(=O)CO)[C@@]3(C)C[C@H](O)[C@@]12F` [FLUDROCORTISONE]: the AC50 is more than 10 µM on Cannabinoid receptor 1 [1], more than 30 µM on Cannabinoid receptor 1 [2], more than 10 µM in assay [3] and more than 10 µM on Histamine H3 receptor.
On to `CCOC(=O)[C@H](CCc1ccccc1)N[C@@H](C)C(=O)N1Cc2ccccc2C[C@H]1C(=O)O`, for which the AC50 in assay [4] was more than 30 µM; on Cannabinoid receptor 1 [1], more than 10 µM; in assay [5] it was more than 30 µM; at Cannabinoid receptor 1 [2], more than 30 µM; in assay [3], more than 10 µM; on Histamine H3 receptor, more than 10 µM.
As to `OCCOCCN1CCN(C(c2ccccc2)c2ccc(Cl)cc2)CC1` (stereo unspecified) [HYDROXYZINE], the AC50 at Cannabinoid receptor 1 [1] was more than 10 µM; at Cannabinoid receptor 1 [2], more than 30 µM; in assay [3] it was 1.66 µM; at Histamine H3 receptor it was more than 10 µM.
In the case of `CC1=C(C/C=C(\C)CCC[C@H](C)CCC[C@H](C)CCCC(C)C)C(=O)c2ccccc2C1=O` [PHYTONADIONE], the AC50 in assay [4], in assay [5] and in assay [6] was more than 30 µM in each case.
`CC(=O)SCC(Cc1ccccc1)C(=O)NCC(=O)OCc1ccccc1` (stereo unspecified) [RACECADOTRIL]: the AC50 at Cannabinoid receptor 1 [1] was more than 10 µM; at Cannabinoid receptor 1 [2] it was more than 30 µM; in assay [3], more than 10 µM; on Histamine H3 receptor it was more than 30 µM.
On to `CCCCCCCC/C=C\CCCCCCCC(=O)O` [OLEIC ACID], for which the AC50 is 27.2 µM in assay [4], 6.68 µM in assay [5] and more than 30 µM in assay [6].
On the same counts, the results for `CC(C)Nc1cccnc1N1CCN(C(=O)c2cc3cc(NS(C)(=O)=O)ccc3[nH]2)CC1` [DELAVIRDINE] are more than 30 µM, more than 30 µM and more than 30 µM.
For the molecule `CN1CCC(N(Cc2cccs2)c2ccccc2)CC1` [THENALIDINE], the results for the AC50 in assay [4], in assay [5] and in assay [6] were 0.399 µM, more than 30 µM and more than 30 µM, respectively.
For `O=C(O)[C@H](O)[C@@H](O)[C@H](O)[C@H](O)CO` [GLUCONIC ACID], the AC50 in assay [4], in assay [5] and in assay [6] was more than 30 µM in each case.
Consider `C[C@H](CS)C(=O)N1CCC[C@H]1C(=O)O` [CAPTOPRIL], for which the half-maximal activity concentration (AC50) (on Cannabinoid receptor 1 [1]; in assay [3]; at Histamine H3 receptor) was more than 10 µM throughout.
For `O=C(c1ccccc1)c1ccc2n1CCC2C(=O)O` (stereo unspecified) [KETOROLAC], the AC50 is more than 30 µM on Cannabinoid receptor 1 [1], more than 10 µM in assay [3] and more than 10 µM at Histamine H3 receptor.
As for `Nc1nnc(-c2cccc(Cl)c2Cl)c(N)n1` [LAMOTRIGINE], the AC50 is more than 10 µM on Cannabinoid receptor 1 [1], more than 30 µM on Cannabinoid receptor 1 [2], more than 10 µM in assay [3] and more than 10 µM at Histamine H3 receptor.

(Values after ChEMBL document CHEMBL5291721, “A preclinical secondary pharmacology resource illuminates target-adverse drug reaction associations of marketed drugs” (Nat Commun, 2023).)
